Experimental data from US7601687B2, “Mechanism for identifying drugs for the treatment of type II diabetes” (BioCrine AB, priority 2006, dated 2009).

Tested on: rat insulin-I gene promoter
Assay: On-line monitoring of insulin promoter-driven DsRed/GFP expression (prIns1.DsRed) in transfected HIT-T15 cells and islet cells
Assay type: cell-based, hamster (HIT-T15), rat (islet cells)
Conditions: for effect of inhibitor on insulin-stimulated insulin gene transcription / insulin promoter activity: 25 μM LY294002, 10 nM rapamycin, 400 nM AC, 100 μM HNMPA-(AM)3
Source text: Construction of prIns1.GFP has been described earlier (Leibiger et al., 1998a). Vector prIns1.DsRed was generated by exchanging the EGFP-expression cassette versus the DsRed-expression cassette obtained from pDsRed1-1 (Clontech). Plasmid prβGK.GFP (i.e. prβGK-278.GFP) was generated by exchanging the CAT-SV40pA-expression cassette of prβGK-278.CAT (Leibiger et al., 1994a) versus the EGFP-bGHpA-expression cassette obtained from pRcCMVI.GFP (Moede et al., 1999). […] All vector constructions were verified by DNA sequence analysis. Constructs for expression of the human Insulin Receptor A and B types, pCMVHIR(A) and pCMVHIR(B) and the control plasmid pCMVstop were kindly provided by Dr. A. Ullrich (Max-Planck-Institute for Biochemistry, Martinsried, Germany). Expression constructs pCMV5.PKBα, pCMV5.PKBαΔ308/437, pCMV5.PDK1 and pCMV5.PDK1-antisense were kindly provided by Drs. P. Cohen and D. R. Alessi (MRC Phosphorylation Unit, University of Dundee, UK).
Insulin-producing HIT-T15 cells were obtained from ATCC. HIT cells were reported to show glucose responsiveness at subphysiological concentrations between 0.1 and 2 mM (Sharma et al., 1995). HIT cells were grown in RPMI 1640 medium supplemented with 100 units/ml penicillin, 100 μg/ml streptomycin, 2 mM glutamine and 10% fetal calf serum at 5% CO2 and 37° C. Pancreatic islets were isolated from normally fed male Wistar rats and from mice by collagenase digestion. Isolated islets were incubated overnight at 5% CO2 and 37° C. in RPMI 1640 medium, supplemented as described above. Transfection of HIT-T15 and islet cells was performed overnight by the lipofectamine technique in RPMI 1640 medium, without serum and antibiotics. For on-line monitoring, cells were grown and transfected on 24-mm glass coverslips. Following transfection, HIT cells were cultured for 12-18 h in RPMI 1640 medium containing 0.1 mM glucose, 10% fetal calf serum and supplemented as above. Before stimulation, islets and islet cells were incubated for 2 h in RPMI 1640 medium, supplemented as above but containing 3 mM glucose. All expression constructs were prepared using the Qiagen Plasmid Maxi Kit (Qiagen), except those used to produce the adenoviruses which where purified by ultracentrifugation via a CsCI-gradient (as described in Sambrook et al, 1989).
All experiments were performed in RPMI 1640 medium, supplemented as above. Protein kinase inhibitors, antibodies or nifedipine were added to the culture medium 30 min prior to stimulation and were kept in the medium throughout stimulation. After stimulation islets, islet cells and HIT cells were cultured further at substimulatory glucose concentrations (0.1 mM for HIT cells and 3 mM for islets and islet cells). For RNA-analysis, islets and cells were harvested 60 min after start of stimulation, if not indicated otherwise. For analysis of protein kinase activities or tyrosine phosphorylation, cells were harvested immediately following stimulation.
Detection of fluorescence by digital imaging fluorescence microscopy was performed as described previously (Leibiger et al., 1998a; Leibiger et al., 1998b). Briefly, transfected cells were grown on 24-mm glass coverslips. After stimulation the coverslips were placed into a perifusion chamber which was mounted on an inverted microscope (Zeiss Axiovert 135TV). Temperature was kept at 37° C. and the cells were perfused with RPMI 1640 medium. The objective lens used was a Zeiss-Fluar ×40/1.30 oil Imm Korr. Fluorescence imaging was performed with a cooled charged-coupled device camera (CH250 with KAF 1400, Photometrics, Tucson, Ariz.) connected to an imaging system (Inovision) with fluorescence excitation from a SPEX fluorolog-2 CM1T11I spectrofluorometer (Spex Industries). The following filter-settings were used: for GFPs65T: excitation at 485 nm, a 505 nm dicroic mirror and an emission band-pass filter of 500-530 nm; for DsRed: excitation at 558 nm, a 565 nm dicroic mirror and a 580 nm long-pass filter for emission […]

Row | Compound | effect of inhibitor on insulin-stimulated insulin gene transcription / insulin promoter activity (5 mU/ml insulin) | insulin promoter-driven DsRed fluorescence upon insulin stimulation (5 mU/ml insulin, co-transfected cells) | amount of exogenous insulin necessary to trigger insulin gene promoter activity (transfected HIT-T15 cells, supplemented culture medium (FIG. 4B))
1 | CC(=O)OCOC(c1ccc2ccccc2c1)P(=O)(OCOC(C)=O)OCOC(C)=O (stereo not shown) [HNMPA-(AM)3] | abolished |  | 
2 | autocamtide-2 related inhibitory peptide | abolished |  | 
3 | insulin |  | elevation | 5-10 μU insulin per ml
